This experiment has as its target T1, Nav1.7 channels (Homo sapiens, UniProt Q15858).
T1 construct: expressed in transfected cells; host or cells: HEK293
Nature of the experiment: Whole-cell patch clamp on Nav1.7 overexpressing HEK293 cells. Format: cell-based. The settings on record: for inhibition at 0.3 µM: HEK293, 300 nM, n=6, read-out: current inhibition. Here is the method:
The recording electrode used in the present example is a glass microelectrode, which is prepared as follows: The glass electrode blanks (outer diameter of 1.50 mm, inner diameter of 0.84 mm) are prepared into single-tube glass microelectrodes with tip diameters of 1-2 μm in four steps using the P-1000 Microelectrode Horizontal Puller for subsequent experiments. Be careful not to touch the heated platinum sheet in the center when pulling the electrode, and be careful not to touch the tip of the pulled electrode to prevent the tip from breaking. Since the tip of the glass microelectrode is highly susceptible to dust attraction, it is generally prepared for use now and should not be left overnight.
Glass microelectrodes are used as follows: rinse clean the glass microelectrodes before use; then put all the glass microelectrodes in a large beaker; add anhydrous ethanol so that the glass microelectrodes are completely immersed in anhydrous ethanol; and place the beaker in an ultrasonic cleaner with ultrasonic vibration for 30 min. Subsequently, pour out the anhydrous ethanol; rinse out the glass microelectrode with ultrapure water 3-4 times; use another small beaker to cover the microelectrode so as not to contaminate the electrode with dust; put the glass microelectrode into the oven for drying; and put the glass microelectrode into a clean box for spare use after drying.
In the patch clamp experiments, the measured sodium currents are corrected for leakage currents, and the primary data of the experiments are recorded using Clampfit 10.6, and the data acquisition is performed by the pCLAMP software. Three to five sweeps are selected for analysis, (sweep, which is a term used in patch clamp software and consists of a series of sampling points) in which the current is in a stable state before the addition of the polypeptide. The average value of the peak current is thus calculated as the control current amplitude. Then 3-5 sweeps in which the current is in a stable state after the addition of polypeptide are selected and analyzed, and the average value of the residual peak current is calculated as the residual current amplitude.
The electrical stimulation effect of polypeptides PPN-01 to PPN-16 on Nav1.7 overexpressing HEK293 cells is studied using the glass microelectrodes obtained from the above preparations and the whole-cell patch clamp techniques (n=1). In a voltage-clamp mode, the clamp voltage is kept at −90 mV; a square-wave stimulus depolarized from −90 mV to +40 mV with a duration of 30 ms is applied; the concentration of each dosing (polypeptide) is 300 nM; and validation is repeated for the six polypeptides that show a significant effect (n=2).
In a voltage-clamp mode, the clamp voltage is kept at −90 m V and a square-wave stimulus depolarized from −90 mV to +40 mV with a duration of 30 ms is applied.
2. The electrical stimulation effect of the polypeptide PPN-01 provided in Example 1 on Nav1.4, Nav1.5, Nav1.6, and Nav1.7 overexpressing HEK293 cells is studied using the glass microelectrodes obtained from the above preparations and employing the whole-cell patch clamp techniques (n=5). In a voltage-clamp mode, the clamp voltage is kept at −90 mV; a square-wave stimulus depolarized from −90 mV to +40 mV with a duration of 30 ms is applied; and a concentration of each dosing (polypeptide) is 300 nM.
3. After establishing whole-cell patch clamp configuration using glass microelectrodes filled with internal electrode solution and HEK293 cells overexpressing Nav1.4, Nav1.5, Nav1.6, or Nav1.7, the polypeptides provided in Example 1 are applied separately. In a voltage-clamp mode, the clamp voltage is kept at −90 m V and a square-wave stimulus depolarized from −90 m V to +40 m V with a duration of 30 ms is applied. […]
In general terms: The patch-clamp technique gives a direct electrical read-out from membranes.

Where two headings read alike, the source gives them in different places. Where a SMILES comes first, the peptide text is derived from it. Bridges are numbered along the chain shown (N, C = ends).

T1 sequence (Q15858 whole entry): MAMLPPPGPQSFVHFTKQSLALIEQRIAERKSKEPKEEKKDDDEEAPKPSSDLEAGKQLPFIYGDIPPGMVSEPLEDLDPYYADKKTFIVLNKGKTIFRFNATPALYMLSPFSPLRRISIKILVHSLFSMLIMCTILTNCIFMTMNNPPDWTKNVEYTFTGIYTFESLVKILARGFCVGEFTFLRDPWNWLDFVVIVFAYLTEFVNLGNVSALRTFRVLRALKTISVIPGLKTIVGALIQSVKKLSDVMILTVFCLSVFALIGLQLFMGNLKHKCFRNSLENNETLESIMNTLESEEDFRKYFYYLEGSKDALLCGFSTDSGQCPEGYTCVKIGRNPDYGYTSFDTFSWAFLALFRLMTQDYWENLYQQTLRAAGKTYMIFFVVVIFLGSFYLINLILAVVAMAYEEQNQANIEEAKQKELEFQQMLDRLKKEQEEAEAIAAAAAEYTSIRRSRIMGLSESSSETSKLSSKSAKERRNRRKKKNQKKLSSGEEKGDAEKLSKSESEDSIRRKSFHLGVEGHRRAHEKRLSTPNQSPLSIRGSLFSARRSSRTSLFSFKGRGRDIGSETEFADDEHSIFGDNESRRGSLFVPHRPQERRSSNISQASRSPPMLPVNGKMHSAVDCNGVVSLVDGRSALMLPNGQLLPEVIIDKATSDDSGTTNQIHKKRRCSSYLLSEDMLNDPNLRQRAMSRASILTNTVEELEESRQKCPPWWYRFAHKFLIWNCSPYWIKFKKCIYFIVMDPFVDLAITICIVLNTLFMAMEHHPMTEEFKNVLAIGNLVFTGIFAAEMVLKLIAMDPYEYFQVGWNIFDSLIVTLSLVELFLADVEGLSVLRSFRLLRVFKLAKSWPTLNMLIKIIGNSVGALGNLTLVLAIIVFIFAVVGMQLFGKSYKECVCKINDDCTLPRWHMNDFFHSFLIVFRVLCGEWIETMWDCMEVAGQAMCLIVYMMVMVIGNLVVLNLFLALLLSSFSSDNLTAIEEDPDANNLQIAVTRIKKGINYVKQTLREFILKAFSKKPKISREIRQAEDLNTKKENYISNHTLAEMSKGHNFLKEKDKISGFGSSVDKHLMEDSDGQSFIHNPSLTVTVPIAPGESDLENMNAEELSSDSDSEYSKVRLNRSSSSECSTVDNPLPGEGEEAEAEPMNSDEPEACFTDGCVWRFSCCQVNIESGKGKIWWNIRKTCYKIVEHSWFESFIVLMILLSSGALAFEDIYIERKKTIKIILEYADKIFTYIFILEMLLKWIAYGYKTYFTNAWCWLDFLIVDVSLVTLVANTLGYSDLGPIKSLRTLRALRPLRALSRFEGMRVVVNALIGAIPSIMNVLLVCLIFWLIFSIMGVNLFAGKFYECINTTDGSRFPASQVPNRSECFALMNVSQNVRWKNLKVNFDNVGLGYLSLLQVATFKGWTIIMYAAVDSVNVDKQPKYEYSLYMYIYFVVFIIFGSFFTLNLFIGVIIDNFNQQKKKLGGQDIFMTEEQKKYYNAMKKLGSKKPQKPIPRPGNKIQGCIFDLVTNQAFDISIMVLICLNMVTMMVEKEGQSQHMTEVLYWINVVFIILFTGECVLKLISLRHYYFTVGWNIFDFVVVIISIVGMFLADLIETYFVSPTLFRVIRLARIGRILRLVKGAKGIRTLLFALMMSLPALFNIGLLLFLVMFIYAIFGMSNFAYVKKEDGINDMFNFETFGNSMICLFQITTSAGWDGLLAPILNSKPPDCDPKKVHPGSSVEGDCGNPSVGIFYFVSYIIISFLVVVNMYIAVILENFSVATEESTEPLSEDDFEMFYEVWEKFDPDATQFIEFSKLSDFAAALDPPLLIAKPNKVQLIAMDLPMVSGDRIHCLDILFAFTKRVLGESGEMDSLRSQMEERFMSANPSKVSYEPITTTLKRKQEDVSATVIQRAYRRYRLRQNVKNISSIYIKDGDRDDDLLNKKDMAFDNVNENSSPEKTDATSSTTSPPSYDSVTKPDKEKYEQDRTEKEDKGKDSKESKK

`CSCC[C@@H]1NC(=O)CNC(=O)[C@H](CCC(=O)O)NC(=O)[C@@H]2CSSC[C@H](NC(=O)[C@H](Cc3ccc(O)cc3)NC(C)=O)C(=O)N[C@@H](CCC(N)=O)C(=O)N[C@@H](CCCCN)C(=O)N[C@@H](Cc3ccccc3)C(=O)N[C@@H](CC(C)C)C(=O)N[C@@H](C)C(=O)N3CCC[C@H]3C(=O)N[C@H]3CSSC[C@H](NC(=O)[C@H](CCC(=O)O)NC1=O)C(=O)N[C@@H](CCCCN)C(=O)N[C@@H](CC(C)C)C(=O)N[C@@H](Cc1c[nH]c4ccccc14)C(=O)N[C@H](C(=O)N[C@@H](CCCCN)C(=O)N[C@@H](CCCCN)C(=O)N[C@@H](CCCCN)C(=O)N[C@@H](CC(C)C)C(=O)N[C@@H](Cc1c[nH]c4ccccc14)C(N)=O)CSSC[C@H](NC(=O)[C@H](CCCCN)NC(=O)[C@H](CCCNC(=N)N)NC(=O)[C@H](CCC(=O)O)NC(=O)[C@H](CO)NC(=O)[C@H](CC(=O)O)NC3=O)C(=O)N2` [PPN-01] (Ac-YCQKFLAPCDSERKCCEGMECKLWCKKKLW-NH2; disulfide 2-16, 9-21, 15-25): for the setting “300 nM polypeptide, clamp −90 mV, depolarized to +40 mV, 30 ms, vs negative control, n=1 (n=2 for six polypeptides)”, the “inhibition of Nav1.7 overexpressing HEK293 cells (current traces)” value is recorded as “significant inhibition”. Besides, where the note is “300 nM, −90 mV to +40 mV, 30 ms, n=5”, the “inhibition effect on Nav1.7 overexpressing HEK293 cells” value is on record as “significant inhibition effect”. The inhibition (commonly the change of the read-out against control, counted positive when it falls) at 0.3 µM runs as follows: (membrane potential +40 mV) 89.6%; (membrane potential −30 mV) 73.6%; (membrane potential −40 mV) 43.6%. The Hill coefficient (commonly the slope factor of the fitted curve) (concentration-response of Nav1.7 peak current inhibition) is on record as 1.18.

These data come from patent US20260042802A1, “POLYPEPTIDE AND USE THEREOF” (priority 2024, published 2026).
